Assay results reported in publication PMC8920385, “Design, synthesis and biological evaluation of a series of dianilinopyrimidines as EGFR inhibitors” (Journal of Enzyme Inhibition and Medicinal Chemistry, 2022).

How the values were obtained:
A549 cells [1] = experiment: Cytotoxicity evaluation (MTT assay), A549; format: cell-based; settings: Homo sapiens, mean ± SD of three replicates
[2] = biological target: T1, wild type EGFR tyrosine kinase (EGFR^wt) (Homo sapiens, UniProt P00533); experiment: In vitro EGFR^wt-TK assay (ELISA); format: biochemical; settings: mean ± SD of three replicates; for inhibition at 1 µM: read-out: EGFR^wt-TK inhibition rate
T1 construct: purchased PTM Bio; Co., Ltd

L02 cells = experiment: Cytotoxicity evaluation (MTT assay), L02 normal cells; settings: Homo sapiens, L02, read-out: IC50 L02
Experimental: Three tumour cells with high expression of EGFR^wt were used to test the antitumor activity of the compounds including, A549 (Human non-small-cell lung cancer cell line) cells, PC-3 (Human prostate cancer cell line) cells, and HepG2 (Human hepatocellular carcinomas cell line) cells. They were all purchased from the Shanghai Cell Bank of the Chinese Academy of Sciences. L02 (normal human liver cell line) cells were also used to evaluate the cytotoxicity. […] The IC50 values were calculated from the dose − response curve under Graph-Pad Prism.

HepG2 cells = experiment: Cytotoxicity evaluation (MTT assay), HepG2; format: cell-based; settings: Homo sapiens, mean ± SD of three replicates
PC-3 cells = experiment: Cytotoxicity evaluation (MTT assay), PC-3; format: cell-based; settings: Homo sapiens, mean ± SD of three replicates
A549 cells [3] = experiment: Cell apoptosis analysis, Annexin V-FITC/PI flow cytometry; format: cell-based, Human; settings: A549, 10 μM, 48 h
From the text: Apoptosis of A549 cells is an efficient route to clear out the extra cancer cells in the tissue homeostasis.

A549 cells [4] = experiment: Cell cycle analysis, PI flow cytometry; settings: 48 h
Experimental: The experimental data of apoptosis and cell cycle for A549 cells were evaluated in BD Accuri C6 flow cytometry (American BD Corporation Shanghai Co., Ltd.), provided by the School of Pharmaceutical Sciences, Guizhou University.
(B) Profiles obtained by FACS. The percentages for different phases of the cell cycle were illustrated in the histogram.

T1 sequence (P00533 25-1210): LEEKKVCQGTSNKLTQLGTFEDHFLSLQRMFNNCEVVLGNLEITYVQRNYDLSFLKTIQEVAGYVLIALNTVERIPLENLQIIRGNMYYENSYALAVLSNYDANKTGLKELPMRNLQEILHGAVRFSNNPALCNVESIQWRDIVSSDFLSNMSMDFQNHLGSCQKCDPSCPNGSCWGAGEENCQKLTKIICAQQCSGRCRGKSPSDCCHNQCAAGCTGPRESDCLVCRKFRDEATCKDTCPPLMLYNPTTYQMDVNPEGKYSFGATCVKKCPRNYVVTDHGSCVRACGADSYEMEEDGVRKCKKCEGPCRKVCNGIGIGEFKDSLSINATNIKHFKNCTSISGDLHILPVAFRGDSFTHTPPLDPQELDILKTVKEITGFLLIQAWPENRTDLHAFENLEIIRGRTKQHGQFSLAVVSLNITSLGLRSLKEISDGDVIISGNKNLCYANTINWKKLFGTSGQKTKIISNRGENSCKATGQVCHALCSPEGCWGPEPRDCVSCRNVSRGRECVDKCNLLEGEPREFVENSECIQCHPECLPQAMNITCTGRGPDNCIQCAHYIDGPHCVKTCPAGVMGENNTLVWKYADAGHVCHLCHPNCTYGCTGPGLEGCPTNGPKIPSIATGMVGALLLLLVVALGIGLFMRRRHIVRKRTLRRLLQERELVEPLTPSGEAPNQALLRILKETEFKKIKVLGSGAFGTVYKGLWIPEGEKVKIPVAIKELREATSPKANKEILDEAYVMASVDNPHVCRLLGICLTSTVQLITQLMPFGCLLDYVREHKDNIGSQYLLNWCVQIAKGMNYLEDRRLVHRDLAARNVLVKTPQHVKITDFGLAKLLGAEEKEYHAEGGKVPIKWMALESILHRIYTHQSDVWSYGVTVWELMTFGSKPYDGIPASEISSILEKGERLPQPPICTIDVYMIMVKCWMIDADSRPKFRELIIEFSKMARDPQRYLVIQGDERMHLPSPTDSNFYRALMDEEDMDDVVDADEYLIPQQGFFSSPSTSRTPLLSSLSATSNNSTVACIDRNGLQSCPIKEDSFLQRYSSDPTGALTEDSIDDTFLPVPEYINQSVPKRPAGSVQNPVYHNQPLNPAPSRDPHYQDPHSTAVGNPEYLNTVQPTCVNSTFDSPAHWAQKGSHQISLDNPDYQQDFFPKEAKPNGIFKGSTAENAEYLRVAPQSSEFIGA

| SMILES | IC50 (A549 cells [1]) [µM] | inhibition at 1 µM ([2]; 1 μM) [%] | IC50 (L02 cells) [µM] | IC50 (HepG2 cells) [µM] | IC50 (PC-3 cells) [µM] | melting point [°C] | early apoptotic cells (Q2-4) (A549 cells [3]) [%] | late apoptotic cells (Q2-2) (A549 cells [3]) [%] | Percentage of cells in G2/M phase (A549 cells [4]; A549, 10 μM) [%] | EGFR^wt-TK inhibition rate ([2]; 1 μM) [%] | IC50 [2] [µM] | Percentage of cells in G2/M phase (A549 cells [4]; A549, 1 μM) [%] |
| --- | --- | --- | --- | --- | --- | --- | --- | --- | --- | --- | --- | --- |
| CNC(=O)c1ccsc1Nc1nc(Nc2ccc(Nc3c(NC4CCCCC4)c(=O)c3=O)cc2)ncc1C(F)(F)F [6f, 2-{2-[4-(2-Cyclohexylamino-3,4-dioxo-cyclobut-1-enylamino)-phenylamino]-5-trifluoromethyl-pyrimidin-4-ylamino}-thiophene-3-carboxylic acid methylamide] | 18.1 ± 2.45 | 34.1 ± 1.29 | > 40 | > 20 | > 20 | > 250 |  |  |  |  |  |  |
| CNC(=O)c1ccsc1Nc1nc(Nc2ccc(NC(=O)c3ccc(F)cc3)cc2)ncc1C(F)(F)F [4d, 2-{2-[4-(4-Fluoro-benzoylamino)-phenylamino]-5-trifluoromethyl-pyrimidin-4-ylamino}-thiophene-3-carboxylic acid methylamide] | > 20 | 7.59 ± 0.25 | > 40 | > 20 | > 20 | 233.5 to 235.3 |  |  |  |  |  |  |
| CNC(=O)c1ccsc1Nc1nc(Nc2ccc(NC(=O)c3ccc(F)c(F)c3)cc2)ncc1C(F)(F)F [4e, 2-{2-[4-(3,4-Difluoro-benzoylamino)-phenylamino]-5-trifluoromethyl-pyrimidin-4-ylamino}-thiophene-3-carboxylic acid methylamide] | > 20 | 27.9 ± 1.34 | > 40 | > 20 | > 20 | 244.3 to 245.9 |  |  |  |  |  |  |
| COc1cc2ncnc(Nc3ccc(F)c(Cl)c3)c2cc1OCCCN1CCOCC1 [Gefitinib, reference compound] |  |  |  |  |  |  | 7.77 | 10.62 | 21.71 |  |  |  |
| CNC(=O)c1ccsc1Nc1nc(Nc2ccc(NC(=O)c3cccc(F)c3)cc2)ncc1C(F)(F)F [4c, 2-{2-[4–(3-Fluoro-benzoylamino)-phenylamino]-5-trifluoromethyl-pyrimidin-4-ylamino}-thiophene-3-carboxylic acid methylamide] | 0.56 ± 0.12 | > 50 | > 40 | 2.21 ± 0.5 | 2.46 ± 0.42 | 217.1 to 219 | 10.70 | 57.84 | 59.32 | 61.69 ± 2.08 | 0.32 ± 0.047 | 51.09 |
